In PubChem BioAssay AID2060626 (Molecular Pharmacology Branch, DTP, NCI, 2025):
Several values for one entry are separate records, joined by “and”; a condition that tells them apart may be missing. Identical values can stand only once. Blank lines part the entries; values can stand above or below the compound they belong to.

Test system: 168753-222-R-J1-PDC complex spheroid viability
Test: Anticancer human tumor 168753-222-R-J1-PDC patient-derived bladder carcinoma cell line growth inhibition [CLK]
Conditions: for viability, T/C: stronger effect = lower value
In short: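 Patient-derived tumor cells grown as complex spheroids with HUVEC endothelial cells and mesenchymal stem cells, treated with drug combinations. Concentrations descend in half-log steps from near clinical Cmax, or from 10 microM if Cmax unknown.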

[1] = curve of first compound, second compound 0.0316 µM
[2] = curve of first compound, second compound 0.1 µM
[3] = curve of first compound, second compound 0.316 µM
[4] = curve of first compound, second compound 1 µM
[5] = curve of first compound, second compound 3.16 µM
[6] = curve of first compound, second compound 10 µM
[7] = second compound 0.0316 µM, first compound 0.0316 µM
[8] = second compound 0.0316 µM, first compound 0.1 µM
[9] = second compound 0.0316 µM, first compound 0.316 µM
[10] = second compound 0.0316 µM, first compound 1 µM
[11] = second compound 0.0316 µM, first compound 3.16 µM
[12] = second compound 0.0316 µM, first compound 10 µM
[13] = second compound 0.1 µM, first compound 0.0316 µM
[14] = second compound 0.1 µM, first compound 0.1 µM
[15] = second compound 0.1 µM, first compound 0.316 µM
[16] = second compound 0.1 µM, first compound 1 µM
[17] = second compound 0.1 µM, first compound 3.16 µM
[18] = second compound 0.1 µM, first compound 10 µM
[19] = second compound 0.316 µM, first compound 0.0316 µM
[20] = second compound 0.316 µM, first compound 0.1 µM
[21] = second compound 0.316 µM, first compound 0.316 µM
[22] = second compound 0.316 µM, first compound 1 µM
[23] = second compound 0.316 µM, first compound 3.16 µM
[24] = second compound 0.316 µM, first compound 10 µM
[25] = second compound 1 µM, first compound 0.0316 µM
[26] = second compound 1 µM, first compound 0.1 µM
[27] = second compound 1 µM, first compound 0.316 µM
[28] = second compound 1 µM, first compound 1 µM
[29] = second compound 1 µM, first compound 3.16 µM
[30] = second compound 1 µM, first compound 10 µM
[31] = second compound 3.16 µM, first compound 0.0316 µM
[32] = second compound 3.16 µM, first compound 0.1 µM
[33] = second compound 3.16 µM, first compound 0.316 µM
[34] = second compound 3.16 µM, first compound 1 µM
[35] = second compound 3.16 µM, first compound 3.16 µM
[36] = second compound 3.16 µM, first compound 10 µM
[37] = second compound 10 µM, first compound 0.0316 µM
[38] = second compound 10 µM, first compound 0.1 µM
[39] = second compound 10 µM, first compound 0.316 µM
[40] = second compound 10 µM, first compound 1 µM
[41] = second compound 10 µM, first compound 3.16 µM
[42] = second compound 10 µM, first compound 10 µM
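Also: viability measured after seven days of drug exposure.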
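For viability, T/C in this document: luminescence signal used as surrogate for viable cell amount; 100% = DMSO vehicle control wells.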

SMILES: CC(CO)NC(=O)c1cc(-c2ccc(Cl)cc2)nn(-c2cnn(C)c2)c1=O (centres undefined) + CNC(=O)c1ccc(Nc2nc(OC3CCCC3)c3c(-c4ccc5nc(C)oc5c4)c[nH]c3n2)c(OC)c1
- IC50 [1]: > 10 µM
- IC50 [2]: > 10 µM
- IC50 [3]: > 10 µM
- IC50 [4]: < 0.0316 µM
- IC50 [5]: < 0.0316 µM
- IC50 [6]: < 0.0316 µM
- viability, T/C [7]: 117%
- viability, T/C [8]: 99.4%
- viability, T/C [9]: 94.4%
- viability, T/C [10]: 97.2%
- viability, T/C [11]: 97.2%
- viability, T/C [12]: 88.2%
- viability, T/C [13]: 102%
- viability, T/C [14]: 99.6%
- viability, T/C [15]: 85.7%
- viability, T/C [16]: 96.7%
- viability, T/C [17]: 95%
- viability, T/C [18]: 85.1%
- viability, T/C [19]: 79.1%
- viability, T/C [20]: 76.8%
- viability, T/C [21]: 74.6%
- viability, T/C [22]: 77.2%
- viability, T/C [23]: 80.5%
- viability, T/C [24]: 66.8%
- viability, T/C [25]: 48.9%
- viability, T/C [26]: 51.3%
- viability, T/C [27]: 44%
- viability, T/C [28]: 32.6%
- viability, T/C [29]: 55.4%
- viability, T/C [30]: 53.1%
- viability, T/C [31]: 24.6%
- viability, T/C [32]: 37%
- viability, T/C [33]: 39.2%
- viability, T/C [34]: 28%
- viability, T/C [35]: 39.4%
- viability, T/C [36]: 35.2%
- viability, T/C [37]: 18.5%
- viability, T/C [38]: 26.8%
- viability, T/C [39]: 27.3%
- viability, T/C [40]: 22.2%
- viability, T/C [41]: 30%
- viability, T/C [42]: 27.7%

SMILES: C=CC(=O)N1CCN(c2nc(=O)n(-c3c(C)ccnc3C(C)C)c3nc(-c4c(O)cccc4F)c(F)cc23)C(C)C1 (centres undefined) + CN1CCN(c2cc(C(=O)Nc3cc4cc(-c5cnn(C)c5)ccc4cn3)ccn2)CC1
- IC50 [1]: > 10 µM
- IC50 [2]: 3.77 µM
- IC50 [3]: < 0.0316 µM
- IC50 [4]: < 0.0316 µM
- IC50 [5]: < 0.0316 µM
- IC50 [6]: < 0.0316 µM
- viability, T/C [7]: 96.6%
- viability, T/C [8]: 107%
- viability, T/C [9]: 111%
- viability, T/C [10]: 133%
- viability, T/C [11]: 82.8%
- viability, T/C [12]: 100%
- viability, T/C [13]: 79.4%
- viability, T/C [14]: 84.5%
- viability, T/C [15]: 55.5%
- viability, T/C [16]: 75.3%
- viability, T/C [17]: 52.5%
- viability, T/C [18]: 32.1%
- viability, T/C [19]: 16.2%
- viability, T/C [20]: 13.4%
- viability, T/C [21]: 14.2%
- viability, T/C [22]: 13.8%
- viability, T/C [23]: 12.8%
- viability, T/C [24]: 15.2%
- viability, T/C [25]: 0.29%
- viability, T/C [26]: 0.48%
- viability, T/C [27]: 1.79%
- viability, T/C [28]: 0.27%
- viability, T/C [29]: 0.3%
- viability, T/C [30]: 0.2%
- viability, T/C [31]: 1.43%
- viability, T/C [32]: 0.16%
- viability, T/C [33]: 0.55%
- viability, T/C [34]: 0.11%
- viability, T/C [35]: 1.89%
- viability, T/C [36]: 0.22%
- viability, T/C [37]: 0.21%
- viability, T/C [38]: 0.2%
- viability, T/C [39]: 0.6%
- viability, T/C [40]: 0.18%
- viability, T/C [41]: 0.4%
- viability, T/C [42]: 0.57%

SMILES: Nc1ccn(C2OC(CO)C(O)C2(F)F)c(=O)n1 (centres undefined)
- viability, T/C (compound 0.0316 µM): 57.8% and 83.1%
- viability, T/C (compound 0.1 µM): 24.7% and 60.2%
- viability, T/C (compound 0.316 µM): 18% and 50.2%
- viability, T/C (compound 1 µM): 23.2% and 52.5%
- viability, T/C (compound 3.16 µM): 26.2% and 46.9%
- viability, T/C (compound 10 µM): 21.6% and 37.8%

SMILES: NC(=O)C(=Cn1cnc(-c2cc(C(F)(F)F)cc(C(F)(F)F)c2)n1)c1cncnc1
- viability, T/C (compound 0.00949 µM): 102% and 101%
- viability, T/C (compound 0.03 µM): 76% and 95.7%
- viability, T/C (compound 0.0949 µM): 52.8% and 83.2%
- viability, T/C (compound 0.3 µM): 48.1% and 84.1%
- viability, T/C (compound 0.949 µM): 41.1% and 68.7%
- viability, T/C (compound 3 µM): 26.5% and 52%

SMILES: C=C(F)C(=O)N1CCN(c2nc(OCC3CCCN3C)nc3c2CCN(c2cccc4cccc(Cl)c24)C3)CC1CC#N (centres undefined) + CNC(=O)c1ccc(Nc2nc(OC3CCCC3)c3c(-c4ccc5nc(C)oc5c4)c[nH]c3n2)c(OC)c1
- IC50 [1]: > 10 µM
- IC50 [2]: 7.02 µM
- IC50 [3]: 8.05 µM
- IC50 [4]: 0.0412 µM
- IC50 [5]: < 0.0316 µM
- IC50 [6]: < 0.0316 µM
- viability, T/C [7]: 104%
- viability, T/C [8]: 120%
- viability, T/C [9]: 102%
- viability, T/C [10]: 102%
- viability, T/C [11]: 110%
- viability, T/C [12]: 52.8%
- viability, T/C [13]: 94.1%
- viability, T/C [14]: 103%
- viability, T/C [15]: 83.9%
- viability, T/C [16]: 96.2%
- viability, T/C [17]: 96.5%
- viability, T/C [18]: 30%
- viability, T/C [19]: 79.5%
- viability, T/C [20]: 75.8%
- viability, T/C [21]: 81.9%
- viability, T/C [22]: 74.3%
- viability, T/C [23]: 90%
- viability, T/C [24]: 43.1%
- viability, T/C [25]: 50.1%
- viability, T/C [26]: 50.6%
- viability, T/C [27]: 45.5%
- viability, T/C [28]: 28.8%
- viability, T/C [29]: 46.8%
- viability, T/C [30]: 31.7%
- viability, T/C [31]: 23.4%
- viability, T/C [32]: 26.8%
- viability, T/C [33]: 26.3%
- viability, T/C [34]: 17.8%
- viability, T/C [35]: 18.4%
- viability, T/C [36]: 18.1%
- viability, T/C [37]: 22.6%
- viability, T/C [38]: 21.2%
- viability, T/C [39]: 24.7%
- viability, T/C [40]: 19.3%
- viability, T/C [41]: 17.5%
- viability, T/C [42]: 14.6%

SMILES: Nc1ccccc1NC(=O)c1ccc(CNC(=O)OCc2cccnc2)cc1 + CNC(=O)c1ccc(Nc2nc(OC3CCCC3)c3c(-c4ccc5nc(C)oc5c4)c[nH]c3n2)c(OC)c1
- IC50 [1]: 5.88 µM
- IC50 [2]: 5.46 µM
- IC50 [3]: 4.11 µM
- IC50 [4]: < 0.0316 µM
- IC50 [5]: < 0.0316 µM
- IC50 [6]: < 0.0316 µM
- viability, T/C [7]: 99.1%
- viability, T/C [8]: 101%
- viability, T/C [9]: 90.6%
- viability, T/C [10]: 90.6%
- viability, T/C [11]: 84.4%
- viability, T/C [12]: 21.6%
- viability, T/C [13]: 98.8%
- viability, T/C [14]: 84.8%
- viability, T/C [15]: 85.8%
- viability, T/C [16]: 82.9%
- viability, T/C [17]: 81.2%
- viability, T/C [18]: 15.4%
- viability, T/C [19]: 80%
- viability, T/C [20]: 68.7%
- viability, T/C [21]: 62.2%
- viability, T/C [22]: 78.3%
- viability, T/C [23]: 63.1%
- viability, T/C [24]: 6.28%
- viability, T/C [25]: 33.9%
- viability, T/C [26]: 39%
- viability, T/C [27]: 36.5%
- viability, T/C [28]: 41.4%
- viability, T/C [29]: 44.7%
- viability, T/C [30]: 4.99%
- viability, T/C [31]: 27.1%
- viability, T/C [32]: 22.3%
- viability, T/C [33]: 29.8%
- viability, T/C [34]: 41.7%
- viability, T/C [35]: 25.7%
- viability, T/C [36]: 3.07%
- viability, T/C [37]: 19.5%
- viability, T/C [38]: 21%
- viability, T/C [39]: 28.1%
- viability, T/C [40]: 27.5%
- viability, T/C [41]: 21.1%
- viability, T/C [42]: 0.71%

Second part, led by results:

- IC50 (curve of compound): > 0.1 µM
SMILES: Cn1ncnc1[C@H]1c2n[nH]c(=O)c3cc(F)cc(c23)N[C@@H]1c1ccc(F)cc1
- viability, T/C (compound 0.000316 µM): 82.2% and 103%
- viability, T/C (compound 0.001 µM): 97% and 99.6%
- viability, T/C (compound 0.00316 µM): 70% and 106%
- viability, T/C (compound 0.01 µM): 87.6% and 108%
- viability, T/C (compound 0.0316 µM): 74.9% and 108%
- viability, T/C (compound 0.1 µM): 55.2% and 91.6%

- IC50 (curve of compound): > 10 µM
SMILES: C#Cc1c(F)ccc2cc(O)cc(-c3ncc4c(N5CC6CCC(C5)N6)nc(OCC56CCCN5CC(F)C6)nc4c3F)c12 (centres undefined)
- viability, T/C (compound 0.0316 µM): 107% and 94.2%
- viability, T/C (compound 0.1 µM): 103% and 96.3%
- viability, T/C (compound 0.316 µM): 99.5% and 107%
- viability, T/C (compound 1 µM): 103% and 97.3%
- viability, T/C (compound 3.16 µM): 89.2% and 66.9%
- viability, T/C (compound 10 µM): 80.6% and 52.9%
